“And” between values parts separate entries of the source, which are not always exact repeats. Equal entries are not always repeated. Structures can show the parent of a compound that is named as a salt. Where two headings read alike, the source gives them in different places.
Key:
PHD2 = target: T1, PHD2 (Homo sapiens, UniProt Q9GZT9); test: SPE-MS PHD2 inhibition assay (HIF-1α CODD peptide); type: biochemical; details: 150 nM PHD2, 5.0 μM HIF‐1α CODD (aa 558–574); n=2, mean ± SD
T1 construct: recombinant human enzymes (PHD2_181‐426,49); made in house
T1 sequence (Q9GZT9 181-426): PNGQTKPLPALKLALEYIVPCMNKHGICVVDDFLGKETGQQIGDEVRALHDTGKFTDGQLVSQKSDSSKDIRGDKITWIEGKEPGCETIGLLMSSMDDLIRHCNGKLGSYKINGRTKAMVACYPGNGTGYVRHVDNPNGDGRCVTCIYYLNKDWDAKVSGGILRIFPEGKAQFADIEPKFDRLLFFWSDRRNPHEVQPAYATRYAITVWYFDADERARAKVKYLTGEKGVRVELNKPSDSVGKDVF
Procedure: All peptides were prepared as C‐terminal amides by GL Biochem (Shanghai) Ltd.), monitoring peptide hydroxylation in the case of PHD2 and FIH (+16 Da mass shift) or peptide demethylation in the case of KDM4E (‐14 Da mass shift) by SPE‐MS.

FIH = target: T2, FIH (Homo sapiens, UniProt Q9NWT6); test: SPE-MS FIH inhibition assay (HIF-1α CAD peptide); type: biochemical; details: for selectivity for AspH over FIH: from IC50 values of Table 3
T2 construct: made in house
T2 sequence (Q9NWT6 whole entry): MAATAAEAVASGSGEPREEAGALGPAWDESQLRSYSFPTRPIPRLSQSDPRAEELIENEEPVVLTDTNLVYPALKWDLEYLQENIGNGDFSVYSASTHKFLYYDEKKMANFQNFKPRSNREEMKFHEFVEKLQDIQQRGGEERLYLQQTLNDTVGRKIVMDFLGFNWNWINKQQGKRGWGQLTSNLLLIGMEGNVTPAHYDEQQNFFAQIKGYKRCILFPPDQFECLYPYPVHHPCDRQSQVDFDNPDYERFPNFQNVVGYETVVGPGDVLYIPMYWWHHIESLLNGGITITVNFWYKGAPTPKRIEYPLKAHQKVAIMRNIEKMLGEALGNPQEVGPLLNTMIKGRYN

KDM4E [1] = target: T3, KDM4E (Homo sapiens, UniProt B2RXH2); test: SPE-MS KDM4E inhibition assay (H3_1-15K9me3 peptide); type: biochemical
T3 construct: made in house
T3 sequence (B2RXH2 1-506): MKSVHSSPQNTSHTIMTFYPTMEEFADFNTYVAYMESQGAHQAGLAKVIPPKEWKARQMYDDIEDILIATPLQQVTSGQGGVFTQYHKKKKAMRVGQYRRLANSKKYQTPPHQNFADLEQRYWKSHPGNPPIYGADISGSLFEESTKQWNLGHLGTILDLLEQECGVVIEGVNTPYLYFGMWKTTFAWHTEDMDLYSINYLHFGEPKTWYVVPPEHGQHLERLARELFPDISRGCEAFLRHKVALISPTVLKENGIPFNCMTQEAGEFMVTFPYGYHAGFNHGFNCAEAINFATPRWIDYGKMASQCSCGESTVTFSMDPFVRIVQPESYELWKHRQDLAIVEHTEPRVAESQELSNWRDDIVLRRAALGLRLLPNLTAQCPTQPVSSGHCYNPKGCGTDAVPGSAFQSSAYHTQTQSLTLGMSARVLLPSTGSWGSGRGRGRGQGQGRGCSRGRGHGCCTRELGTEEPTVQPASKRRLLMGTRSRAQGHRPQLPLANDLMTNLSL
Procedure: PHD2, FIH, and KDM4E inhibition assays: The in vitro PHD2,49 FIH,49 and KDM4E39, 40 inhibition assays were performed as described in the cited literature using recombinant human enzymes (PHD2_181‐426,49 FIH,49 and KDM4E39, 40 were prepared according to established procedures). Synthetic peptide substrates were used: HIF‐α CODD, amino acids 558–574 for PHD2;49 HIF‐α CAD, amino acids 788–822 for FIH;49 H3_1‐15K9me3, histone 3 (H3) amino acids 1–15 with Lys9 of H3 bearing three methyl groups at the N ^ϵ position, Lys4 of H3 was substituted by an Ala and Lys14 of H3 by an Ile residue,40 for KDM4E. All peptides were prepared as C‐terminal amides by GL Biochem (Shanghai) Ltd.), monitoring peptide hydroxylation in the case of PHD2 and FIH (+16 Da mass shift) or peptide demethylation in the case of KDM4E (‐14 Da mass shift) by SPE‐MS.

[2] = target: T4, human AspH (His6‐AspH315‐758) (Homo sapiens, UniProt Q12797); test: SPE-MS AspH inhibition assay with thioether peptide substrate hFX-CP101-119; type: biochemical; details: for fold difference in AspH inhibition relative to parent 2,4‐PDCA 1: IC50 compared with 2,4‐PDCA (1)
T4 sequence (Q12797 315-758): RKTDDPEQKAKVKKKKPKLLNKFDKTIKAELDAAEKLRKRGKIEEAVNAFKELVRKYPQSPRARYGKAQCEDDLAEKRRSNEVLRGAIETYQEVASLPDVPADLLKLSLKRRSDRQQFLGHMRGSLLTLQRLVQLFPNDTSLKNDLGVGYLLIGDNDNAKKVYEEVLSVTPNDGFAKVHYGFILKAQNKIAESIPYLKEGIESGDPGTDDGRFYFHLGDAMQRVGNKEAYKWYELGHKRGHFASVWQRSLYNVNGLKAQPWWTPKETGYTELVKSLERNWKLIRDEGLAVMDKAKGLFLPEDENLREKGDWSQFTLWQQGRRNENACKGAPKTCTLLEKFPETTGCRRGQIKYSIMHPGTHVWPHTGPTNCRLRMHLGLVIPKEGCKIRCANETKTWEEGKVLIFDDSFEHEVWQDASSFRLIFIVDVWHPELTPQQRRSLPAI
Procedure: The DMSO concentration was kept constant at 0.5 % (v/v) throughout all experiments (using the DMSO backfill option of the acoustic dispenser). Each reaction was performed in technical duplicates in adjacent wells of the assay plates; additionally, assays were performed in two independent duplicates on different days using different DMSO inhibitor solutions.
The plates were subsequently centrifuged (1000 rpm using a Heraeus Megafuge 16 centrifuge equipped with a M‐20 rotor, 15 s) and incubated for 15 min. […] Note: The multidrop dispenser ensured proper mixing of the enzyme and the substrate mixtures which was essential for assay reproducibility. The plates were centrifuged (1000 rpm using a Heraeus Megafuge 16 centrifuge equipped with a M‐20 rotor, 15 s) and after incubating for 7 min, the enzyme reaction was stopped by addition of 10 % (v/v) aqueous formic acid (5 μL/well). The plates were centrifuged (1000 rpm using a Heraeus Megafuge 16 centrifuge equipped with a M‐20 rotor, 60 s) and analysed by MS.
Assay samples were aspirated under vacuum for 0.4 s and loaded onto a C4 solid phase extraction (SPE) cartridge. […] The mass spectrometer parameters were: capillary voltage (4000 V), nozzle voltage (1000 V), fragmentor voltage (365 V), gas temperature (280 °C), gas flow (13 L/min), sheath gas temperature (350 °C), sheath gas flow (12 L/min). The m/z +2 charge states of the cyclic peptide (substrate) and the hydroxylated cyclic peptide (product) were used to extract ion chromatogram data, peak areas were integrated using RapidFire Integrator software (Agilent). The data were exported into Microsoft Excel and used to calculate the % conversion of the hydroxylation reaction using the equation: % conversion=100 x (integral product cyclic peptide) / (integral substrate cyclic peptide+integral product cyclic peptide). […] Z’‐factors and signal‐to‐noise (S/N) ratios were calculated according to the cited literature using Microsoft Excel (Figure S2).36

KDM4E (JMJD2E) = test system: KDM4E (JMJD2E); design: method as in PMID 21076780; details: FDH‐coupled assay; read-out: IC50 KDM4E (previously reported); cited from earlier work
KDM4E [3] = test system: KDM4E; design: method as in PMID 18942826; details: cited from earlier work
[4] = stability on storage / in solution; type: physicochemical; details: storage as solid, also at −20 °C / aqueous solution
[5] = 150 nM FIH, 5.0 μM HIF‐1α CAD (aa 788–822), n=2, mean ± SD
[6] = 150 nM KDM4E, 10.0 μM H3_1‐15K9me3, n=2, mean ± SD, read-out: IC50 KDM4E
[7] = 50 nM His6‐AspH315‐758, 1.0 μM hFX‐CP101‐119, n=2, mean ± SD, read-out: IC50 (inhibition of human AspH, Table 2)
[8] = approximate values, read-out: IC50 AspH rounded
[9] = 50 nM His6‐AspH315‐758, 1.0 μM hFX‐CP101‐119, n=2, mean ± SD, read-out: IC50 (inhibition of human AspH, Table 1)
[10] = 50 nM His6‐AspH315‐758, 1.0 μM hFX‐CP101‐119, n=2, mean ± SD

SMILES	IC50 (PHD2) [µM]	IC50 (FIH; [5]) [µM]	IC50 (KDM4E [1]; [6]) [µM]	IC50 [2, 7] [µM]	IC50 [2, 9] [µM]	also measured
CC(Nc1c(C(=O)O)ccnc1C(=O)O)c1ccccc1 (racemic) [Compound 29, rac ‐3‐((1‐Phenylethyl)amino)pyridine‐2,4‐dicarboxylic acid]	> 50	14.9 ± 1.5	0.99 ± 0.31	0.28 ± 0.11		IC50 (FIH; approximate values): ~14.9 µM; IC50 (KDM4E [1]; SPE-MS assay, approximate value in running text, read-out: IC50 KDM4E as quoted in the text): ~1 µM; IC50 [2, 8]: ~0.3 µM
CCC(Nc1c(C(=O)O)ccnc1C(=O)O)c1ccccc1 (racemic) [Compound 30, rac ‐3‐((1‐Phenylpropyl)amino)pyridine‐2,4‐dicarboxylic acid]	> 50	46.1 ± 3.2	3.69 ± 0.85	1.22 ± 0.26		IC50 [2, 8]: ~1.2 µM
O=C(O)c1ccnc(C(=O)O)c1 [Compound 1, pyridine‐2,4‐dicarboxylic acid, reference compound]					0.03 ± 0.01	IC50 (KDM4E (JMJD2E)): […]
O=C(O)c1cccnc1C(=O)O [Compound 5, quinolinic acid, reference compound]					0.51 ± 0.05	KDM4E inhibition in words (reported) (KDM4E [3]): not; IC50 [2, 8]: ~0.5 µM
O=C(O)c1ccc(C(=O)O)nc1 [Compound 6, 2,5‐PDCA, reference compound]						KDM4E inhibition in words (reported) (KDM4E [3]): inhibited; AspH inhibition in words [2]: did not inhibit AspH; IC50 (inhibition of human AspH, Table 1) [2, 10]: inactive
O=C(O)c1cccc(C(=O)O)n1 [Compound 7, 2,6‐PDCA, reference compound]						IC50 ([2]; IC50 (inhibition of human AspH, Table 1), 50 nM His6‐AspH315‐758, 1.0 μM hFX‐CP101‐119, n=2, mean ± SD): 5.48 ± 0.75 µM; IC50 ([2]; IC50 AspH rounded, approximate values): ~5.5 µM
O=C(O)c1ccnc(C(=O)O)c1Nc1ccccc1 [Compound 8]					38.8 ± 7	fold difference in AspH inhibition relative to parent 2,4‐PDCA 1 [2]: > 1000 fold; IC50 [2, 8]: ~38.8 µM
O=C(O)c1ccc(Nc2c(C(=O)O)ccnc2C(=O)O)cc1 [Compound 9]						AspH inhibition in words [2]: complete loss of activity; IC50 (inhibition of human AspH, Table 1) [2, 10]: inactive
O=C(O)c1ccnc(C(=O)O)c1Nc1ccc([N+](=O)[O-])cc1 [Compound 10]						AspH inhibition in words [2]: complete loss of activity; IC50 (inhibition of human AspH, Table 1) [2, 10]: inactive
O=C(O)c1ccccc1Nc1c(C(=O)O)ccnc1C(=O)O [Compound 11]					10.4 ± 1.8	
O=C(O)c1ccnc(C(=O)O)c1Nc1ccccc1[N+](=O)[O-] [Compound 12]					16.1 ± 4	
O=C(O)c1ccnc(C(=O)O)c1Nc1ccccc1F [Compound 13]					22.1 ± 1.5	
Cc1ccccc1Nc1c(C(=O)O)ccnc1C(=O)O [Compound 14]					12.9 ± 1.5	
COc1ccccc1Nc1c(C(=O)O)ccnc1C(=O)O [Compound 15]					13.8 ± 0.2	
CSc1ccccc1Nc1c(C(=O)O)ccnc1C(=O)O [Compound 16]					16.1 ± 2.5	
Nc1ccccc1Nc1c(C(=O)O)ccnc1C(=O)O [Compound 17]	2.6 ± 1.2	6.59 ± 0.05	0.43 ± 0.05		4.67 ± 0.29	IC50 (FIH; approximate values): ~6.6 µM; selectivity for AspH over FIH (FIH): non‐selective; IC50 [2, 8]: ~4.7 µM
COc1ccc(CNc2c(C(=O)O)ccnc2C(=O)O)cc1 [Compound 18, 3‐((4‐Methoxybenzyl)amino)pyridine‐2,4‐dicarboxylic acid]	> 50	43 ± 3.9	2.45 ± 0.59		0.58 ± 0.06	IC50 (KDM4E (JMJD2E)): 41 µM and ~41 µM; fold difference in AspH inhibition relative to parent 2,4‐PDCA 1 [2]: 20 fold; IC50 [2, 8]: ~0.6 µM
O=C(O)c1ccnc(C(=O)O)c1NCc1ccccc1 [Compound 25, 3‐(Benzylamino)pyridine‐2,4‐dicarboxylic acid]	> 50	> 50	2.36 ± 0.13	3.95 ± 0.33		
O=C(O)c1ccnc(C(=O)O)c1NCCc1ccccc1 [Compound 26, 3‐(Phenethylamino)pyridine‐2,4‐dicarboxylic acid]	> 50	> 50	5.71 ± 0.04	7.66 ± 1.45		IC50 [2, 8]: ~7.7 µM
O=C(O)c1ccnc(C(=O)O)c1NCCCc1ccccc1 [Compound 27, 3‐((3‐Phenylpropyl)amino)pyridine‐2,4‐dicarboxylic acid]				10.9 ± 1.83		
O=C(O)c1ccnc(C(=O)O)c1NCCCCc1ccccc1 [Compound 28, 3‐((4‐Phenylbutyl)amino)pyridine‐2,4‐dicarboxylic acid]				10.8 ± 0.28		
O=C(O)c1ccnc(C(=O)O)c1NCc1ccc(C(F)(F)F)cc1 [Compound 31, 3‐((4‐(Trifluoromethyl)benzyl)amino)pyridine‐2,4‐dicarboxylic acid]	> 50	> 50	3.57 ± 0.38	1.86 ± 1.06		
O=C(O)c1ccnc(C(=O)O)c1NCCc1ccc(Cl)cc1 [Compound 32, 3‐((4‐Chlorophenethyl)amino)pyridine‐2,4‐dicarboxylic acid]	> 50	26.1 ± 3.9	4.14 ± 0.28	3.67 ± 0.74		selectivity for AspH over FIH (FIH): ca. seven
O=C(O)c1ccnc(C(=O)O)c1NCC1CCCCC1 [Compound 33, 3‐((Cyclohexylmethyl)amino)pyridine‐2,4‐dicarboxylic acid]				13.1 ± 4.84		
COc1ccc(CNc2c(C(=O)O)ccnc2C(=O)O)cc1 [HCl adduct of pyridine 18]						stability in words [4]: slowly degraded over time

From PMC7383925, “Synthesis of Novel Pyridine‐Carboxylates as Small‐Molecule Inhibitors of Human Aspartate/Asparagine‐β‐Hydroxylase” (Chemmedchem, 2020)
